Results taken from patent publication US20090062721A1, “IONTOPHORESIS DEVICE AND METHOD OF MANUFACTURING THE SAME” (TTI ELLEBEAU INC., priority 2006, published 2009).
Where a name gives a salt, the structure may show the parent alone.

Assay: pH of aqueous lidocaine hydrochloride solution brought into contact with an activated carbon fiber polarizable electrode
Assay type: physicochemical
Settings: after contact with polarizable electrode composed of activated carbon fibers, within an extremely short time period

In the case of `CCN(CC)CC(=O)Nc1c(C)cccc1C` [lidocaine hydrochloride], the “pH value of aqueous solution” value is reported as “about 2.5”.
